# Reference: the Kinase Knowledgebase extract (Sharma et al. 2016)
# Biological target: PIK3CA (human) (UniProt P42336)
# Assay: Assessment of PIK3CA Kinase Activity
# Sequence of PIK3CA (human) (P42336 whole entry, looked up): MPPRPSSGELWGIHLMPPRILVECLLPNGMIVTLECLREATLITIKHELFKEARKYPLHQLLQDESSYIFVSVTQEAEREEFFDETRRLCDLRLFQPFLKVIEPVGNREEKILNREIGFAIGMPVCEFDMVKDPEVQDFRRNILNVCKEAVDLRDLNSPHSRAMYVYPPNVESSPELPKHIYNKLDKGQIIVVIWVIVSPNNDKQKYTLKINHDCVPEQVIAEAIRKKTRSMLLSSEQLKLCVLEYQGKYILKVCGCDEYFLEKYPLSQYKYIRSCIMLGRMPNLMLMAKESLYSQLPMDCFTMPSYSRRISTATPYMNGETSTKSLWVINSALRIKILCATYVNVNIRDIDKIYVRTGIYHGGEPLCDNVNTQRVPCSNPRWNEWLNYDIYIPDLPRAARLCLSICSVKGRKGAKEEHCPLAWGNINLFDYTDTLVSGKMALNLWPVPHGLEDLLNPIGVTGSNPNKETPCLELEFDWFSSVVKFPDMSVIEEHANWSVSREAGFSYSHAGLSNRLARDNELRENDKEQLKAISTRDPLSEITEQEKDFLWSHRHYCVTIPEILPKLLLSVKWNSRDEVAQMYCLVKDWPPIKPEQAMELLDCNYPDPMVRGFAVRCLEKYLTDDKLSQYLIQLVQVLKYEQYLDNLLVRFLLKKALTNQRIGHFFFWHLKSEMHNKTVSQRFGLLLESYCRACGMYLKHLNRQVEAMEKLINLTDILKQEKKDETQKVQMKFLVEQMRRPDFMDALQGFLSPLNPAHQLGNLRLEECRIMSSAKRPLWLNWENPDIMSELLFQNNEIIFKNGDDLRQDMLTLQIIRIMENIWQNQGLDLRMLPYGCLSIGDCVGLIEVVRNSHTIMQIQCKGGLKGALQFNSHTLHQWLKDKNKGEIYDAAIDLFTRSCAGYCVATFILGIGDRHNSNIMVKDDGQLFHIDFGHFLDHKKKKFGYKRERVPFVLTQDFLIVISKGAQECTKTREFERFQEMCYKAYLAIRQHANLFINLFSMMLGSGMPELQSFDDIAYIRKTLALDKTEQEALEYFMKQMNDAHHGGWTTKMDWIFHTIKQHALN
row,SMILES,IC50
1,COC(=O)c1ccc2c(c1)OCCn1cc(-c3cccc(C(F)(F)F)c3)nc1-2,< 1000 nM
2,CC(C)n1ncnc1-c1cn2c(n1)-c1ccc(-c3cn(C)c(CC(C)(C)O)n3)cc1OCC2,< 1000 nM
3,CCOC(=O)C(C)(C)n1cc(-c2ccc3c(c2)OCCn2cc(-c4nc(C)nn4C(C)C)nc2-3)cn1,< 1000 nM
4,CC(C)n1ncnc1-c1cn2c(n1)-c1ccc(C3CN(CC(N)=O)C3)cc1OCC2,< 1000 nM
5,Cc1nc(-c2cn3c(n2)-c2ccc(-c4cnn(CCO)c4)cc2OCC3)n(C)n1,< 1000 nM
6,CC(C)(O)Cn1cc(-c2ccc3c(c2)OCCn2cc(C(=O)N4CCS(=O)(=O)CC4)nc2-3)cn1,< 1000 nM
7,COCCN1CCC(c2ccc3c(c2)OCCn2cc(-c4ncnn4C(C)C)nc2-3)CC1,< 1000 nM
8,Cc1nc(-c2cn3c(n2)-c2ccc(-c4cn[nH]c4)cc2OCC3)n(C(C)C)n1,< 1000 nM
9,CC(C)n1ncnc1-c1cn2c(n1)-c1ccc(-c3cn[nH]c3)cc1OCC2,< 1000 nM
10,CC(C)n1ncnc1-c1cn2c(n1)-c1cnc(N3CCOCC3)cc1OCC2,< 1000 nM
11,CC(C)n1ncnc1-c1cn2c(n1)-c1cnc(N3CCC(C)(C)[C@H]3C(N)=O)cc1OCC2,< 1000 nM
12,CC(C)n1ncnc1-c1cn2c(n1)-c1ccc(N(C)[C@@H](C)C(N)=O)cc1OCC2,< 1000 nM
13,CC(C)n1nc(N)nc1-c1cn2c(n1)-c1ccc(-c3ccc(Cl)cc3)cc1OCC2,< 1000 nM
14,CC(C)n1ncnc1-c1cn2c(n1)-c1ccc(CC(=O)O)cc1OCC2,< 1000 nM
15,Cc1nc(-c2cn3c(n2)-c2ccc(-c4cnc(N(C)C)nc4)cc2OCC3)n(C(C)C)n1,< 1000 nM
16,CC(C)n1ncnc1-c1cn2c(n1)-c1ccc(C3CN(CC(=O)N(C)C)C3)cc1OCC2,< 1000 nM
17,Cc1nc(-c2cn3c(n2)-c2cnc(N)cc2OCC3)n(CC(F)(F)F)n1,< 1000 nM
18,CCOc1ccc2c(c1)OCCn1cc(-c3nc(C)nn3C(C)C)nc1-2,< 1000 nM
19,CC(C)n1ncnc1-c1cn2c(n1)-c1ccc(OC(C(N)=O)C3CC3)cc1OCC2 (stereo not drawn),< 1000 nM
20,CNC(=O)c1ccc2c(c1)OCCn1cc(-c3ncnn3CC(F)(F)F)nc1-2,< 1000 nM
21,CC(C)[C@@H](Oc1ccc2c(c1)OCCn1cc(-c3ncnn3CC(F)(F)F)nc1-2)C(N)=O,< 1000 nM
22,CC(C)n1ncnc1-c1cn2c(n1)-c1ccc(C(=O)NO)cc1OCC2,< 1000 nM
23,CC(C)(O)CN1CC(c2ccc3c(c2)OCCc2cn(-c4ncnn4-c4ccc(F)cc4F)nc2-3)C1,< 1000 nM
24,CC(C)(CO)NC(=O)c1ccc2c(c1)-c1nc(-c3nccn3-c3ccccc3Cl)cn1CCO2,< 1000 nM
25,O=C(c1ccc2c(c1)-c1nc(-c3ncnn3CC(F)(F)F)cn1CCO2)N1CCOCC1,< 1000 nM

row,SMILES,IC50
1,CC(C)n1ncnc1-c1cn2c(n1)-c1cc(C(F)F)ncc1OCC2,< 1000 nM
2,CC(C)n1ncnc1-c1cn2c(n1)-c1ccc(N3CC(C(N)=O)C3)nc1OCC2,< 1000 nM
3,CC(C)n1ncnc1-c1cn2c(n1)-c1ccc(N)cc1OCC2,< 1000 nM
4,CC(C)n1nccc1-c1cn2c(n1)-c1ccc(CN)cc1OCC2,< 1000 nM
5,COCc1nc(-c2cn3c(n2)-c2ccc(-c4cnn(CC(C)(C)O)c4)cc2OCC3)n(C(C)C)n1,< 1000 nM
6,CC(C)n1ncnc1-c1cn2c(n1)-c1cnc(N3CCN(CC(N)=O)CC3)cc1OCC2,< 1000 nM
7,CNC(=O)c1ccc2c(c1)-c1nn(-c3ncnn3C(C)C)cc1CCO2,< 1000 nM
8,CC(C)n1ncnc1-n1cc2c(n1)-c1ccc(C3CN(CC(N)=O)C3)cc1OCC2,< 1000 nM
9,CCNC(=O)CN1CCC(c2ccc3c(c2)OCCn2cc(-c4nc(C)nn4C(C)C)nc2-3)CC1,< 1000 nM
10,CC(C)n1nc(N)nc1-c1cn2c(n1)-c1cc(F)ccc1OCC2,< 1000 nM
11,CC(C)n1ncnc1-c1cn2c(n1)-c1ccc(N3CCN(C)CC3)nc1OCC2,< 1000 nM
12,OCc1nc(-c2cn3c(n2)-c2cnc(N4CCCC4)cc2OCC3)n(CC(F)(F)F)n1,< 1000 nM
13,CC(C)n1nc(N)nc1-c1cn2c(n1)-c1ccc(C#N)cc1OCC2,< 1000 nM
14,CC(C)n1ncnc1-c1cn2c(n1)-c1ccc(N3CC[C@H]3C(N)=O)cc1OCC2,< 1000 nM
15,Cc1nc(-c2cn3c(n2)-c2cc(F)ccc2OCC3)n(C(C)C)n1,< 1000 nM
16,CC(C)(O)CN1CCC(c2ccc3c(c2)-c2nn(-c4ncnn4-c4ccc(F)cc4F)cc2CCO3)CC1,< 1000 nM
17,Nc1nc(-c2cn3c(n2)-c2ccc(-c4ccc(Cl)cc4)cc2OCC3)n(-c2ccccc2Cl)n1,< 1000 nM
18,Cc1nc(-c2cn3c(n2)-c2cc(C#N)ccc2OCC3)n(C(C)C)n1,< 1000 nM
19,Cc1nc(-c2cn3c(n2)-c2ccc(-c4cncc(F)c4)cc2OCC3)n(C(C)C)n1,< 1000 nM
20,CC(C)n1ncnc1-c1cc2n(n1)-c1cc(C(=O)Nc3ccon3)ccc1OCC2,< 1000 nM
21,CC(C)n1ncnc1-c1cn2c(n1)-c1cc(Br)ccc1OCC2,< 1000 nM
22,CC(C)n1ncnc1-c1cn2c(n1)-c1ccc(OC(F)F)cc1OCC2,< 1000 nM
23,CC(C)n1ncnc1-c1cn2c(n1)-c1ccc(-c3ccccc3CO)cc1OCC2,< 1000 nM
24,CC(C)n1ncc(C#N)c1-c1cn2c(n1)-c1ccc(C(N)=O)cc1OCC2,< 1000 nM
25,CCOc1ccc2c(c1)OCCn1cc(-c3ncnn3C(C)C)nc1-2,< 1000 nM

row,SMILES,IC50
1,Cc1ccc2c(c1)OCCn1cc(-c3nc(C)nn3C(C)C)nc1-2,< 1000 nM
2,CC(C)n1ncnc1-c1cn2c(n1)-c1ccc(C(=O)NC(C)(C)CO)cc1OCC2,< 1000 nM
3,CC(C)n1ncnc1-c1cn2c(n1)-c1ccc(-c3cnc(CC(C)(C)O)[nH]3)cc1OCC2,< 1000 nM
4,Cc1nc(-c2cn3c(n2)-c2cnc(N4C[C@H](F)C[C@H]4C(N)=O)cc2OCC3)n(C(C)C)n1,< 1000 nM
5,Cc1nc(-c2cn3c(n2)-c2cnc(NCC(N)=O)cc2OCC3)n(CC(F)(F)F)n1,< 1000 nM
6,Cc1nc(-c2cn3c(n2)-c2ccc(CNC(N)=O)cc2OCC3)n(-c2ccc(F)cc2F)n1,< 1000 nM
7,CCc1ccc2c(c1)OCCn1cc(-c3nc(C)nn3C(C)C)nc1-2,< 1000 nM
8,CC(C)n1nc(CN(C)C)nc1-c1cn2c(n1)-c1ccccc1OCC2,< 1000 nM
9,CC(C)n1ncnc1-c1cc2n(n1)-c1cc(C3CNC3)ccc1OCC2,< 1000 nM
10,C[C@H](Nc1ccc2c(c1)OCCn1cc(-c3ncnn3CC(F)(F)F)nc1-2)C(N)=O,< 1000 nM
11,CCN1CCC(c2ccc3c(c2)OCCn2cc(-c4ncnn4C(C)C)nc2-3)CC1,< 1000 nM
12,Cc1nc(-c2cn3c(n2)-c2ccc(OC4COC4)cc2OCC3)n(C(C)C)n1,< 1000 nM
13,CC(C)n1ncnc1-c1cn2c(n1)-c1cnc(OCC(N)=O)cc1OCC2,< 1000 nM
14,CC(C)n1ncnc1-c1cn2c(n1)-c1ccc(C(=O)NCCS(C)(=O)=O)cc1OCC2,< 1000 nM
15,Cc1nc(-c2cn3c(n2)-c2ccc([C@@H]4CCNC[C@@H]4O)cc2OCC3)n(C(C)C)n1,< 1000 nM
16,CC(C)n1ncnc1-c1cn2c(n1)-c1ccc([C@@H]3C[C@H]4CC[C@@H](C3)N4CC(N)=O)cc1OCC2,< 1000 nM
17,CC(C)n1ncnc1-c1cn2c(n1)-c1ccc([C@H]3C[C@H]4CC[C@@H](C3)N4CC(N)=O)cc1OCC2,< 1000 nM
18,CC(C)n1ncnc1-c1cn2c(n1)-c1ccc(N3C[C@@H](F)C[C@H]3C(N)=O)cc1OCC2,< 1000 nM
19,CC(C)N(CCO)C(=O)c1cn2c(n1)-c1ccc(C3CCN(CC(=O)N(C)C)CC3)cc1OCC2,< 1000 nM
20,CC(C)n1ncnc1-c1cn2c(n1)-c1ccc(C3CN(CCS(C)(=O)=O)C3)cc1OCC2,< 1000 nM
21,CC(C)n1ncnc1-c1cn2c(n1)-c1ccc(OCC(F)(F)F)cc1OCC2,< 1000 nM
22,Cc1nc(-c2cn3c(n2)-c2ccc(-c4cncnc4)cc2OCC3)n(C(C)C)n1,< 1000 nM
23,CC(C)n1ncnc1-c1cn2c(n1)-c1ccc(OCC3(N)COC3)cc1OCC2,< 1000 nM
24,Cc1nc(-c2cn3c(n2)-c2cnc(N4C[C@@H](F)C[C@H]4C(N)=O)cc2OCC3)n(C(C)C)n1,< 1000 nM
25,O=C1CCCN1CCNc1cc2c(cn1)-c1nc(-c3ncnn3-c3ccc(F)cc3F)cn1CCO2,< 1000 nM

row,SMILES,IC50
1,CC(C)n1ncnc1-c1cc2n(n1)-c1cc(CN3CCN(C(=O)CO)CC3)ccc1OCC2,< 1000 nM
2,CNC(=O)C(C)(C)N1CCC(c2ccc3c(c2)OCCn2cc(-c4ncnn4C(C)C)nc2-3)C(O)C1 (stereo not drawn),< 1000 nM
3,Cn1ccnc1C(O)CNc1cc2c(cn1)-c1nc(-c3ncnn3-c3ccc(F)cc3F)cn1CCO2 (stereo not drawn),< 1000 nM
4,CC(C)n1ncnc1-n1cc2c(n1)-c1cc(C(=O)Nc3cnn(CCO)c3)ccc1OCC2,< 1000 nM
5,C[C@H](Oc1ccc2c(c1)OCCn1cc(-c3ncnn3C(C)(C)C)nc1-2)C(N)=O,< 1000 nM
6,CC(C)n1ncnc1-c1cn2c(n1)-c1ccc(-c3cncn3C3CCCCO3)cc1OCC2 (stereo not drawn),< 1000 nM
7,Cc1ncc(-c2ccc3c(c2)OCCn2cc(-c4ncnn4C(C)C)nc2-3)[nH]1,< 1000 nM
8,NC(=O)CNc1ccc2c(c1)OCCn1cc(-c3ncnn3CC(F)(F)F)nc1-2,< 1000 nM
9,CC(C)n1ncnc1-c1cn2c(n1)-c1ccc(N3CCCCC3C(N)=O)cc1OCC2 (stereo not drawn),< 1000 nM
10,Cc1nc(-c2cn3c(n2)-c2ccc(-c4cnn(CC(C)(C)O)c4)cc2OCC3)n(C(C)C)n1,< 1000 nM
11,CC(C)n1ncnc1-c1cn2c(n1)-c1cnc(NCC(O)c3nccn3C)cc1OCC2 (stereo not drawn),< 1000 nM
12,FC(F)(F)Cn1ncnc1-c1cc2n(n1)-c1cc(C3CCNCC3)ccc1OCC2,< 1000 nM
13,CC(C)n1ncnc1-c1cn2c(n1)-c1cnc(N3C[C@@H](O)C[C@H]3C(N)=O)cc1OCC2,< 1000 nM
14,CCOc1ccccc1-c1cn2c(n1)-c1ccc(C(=O)OC)cc1OCC2,< 1000 nM
15,CC(C)n1ncnc1-c1cn2c(n1)-c1cnc(Cl)cc1OCC2,< 1000 nM
16,COC(=O)c1ccc2c(c1)OCCn1cc(-c3ccccc3C(C)C)nc1-2,< 1000 nM
17,CC(C)(CO)NC(=O)c1ccc2c(c1)-c1nc(-c3ncnn3-c3ccc(F)cc3F)cn1CCO2,< 1000 nM
18,CC(C)n1nccc1-c1cn2c(n1)-c1ccc(CNC(N)=O)cc1OCC2,< 1000 nM
19,CC(C)N1CCN(C(=O)c2ccc3c(c2)-c2nc(-c4ncnn4-c4ccccc4Cl)cn2CCO3)CC1,< 1000 nM
20,Cc1nc(-c2cn3c(n2)-c2ccc(-c4cccnc4)cc2OCC3)n(C(C)C)n1,< 1000 nM
21,Nc1nc(-c2cn3c(n2)-c2cc(-c4cncnc4)ccc2OCC3)n(-c2ccccc2Cl)n1,< 1000 nM
22,NC(=O)CN1CC(c2ccc3c(c2)OCCc2cn(-c4ncnn4-c4ccc(F)cc4F)nc2-3)C1,< 1000 nM
23,CC[C@@H](Oc1ccc2c(c1)OCCn1cc(-c3ncnn3CC(F)(F)F)nc1-2)C(N)=O,< 1000 nM
